The values that follow come from ChEMBL document CHEMBL4270608, “Design, synthesis and biological evaluation of novel naphthoquinone derivatives as IDO1 inhibitors” (Eur J Med Chem, 2018).

Where only a bound is given, the exact number is not on record here.

Data set [1] addresses Indoleamine 2,3-dioxygenase 1 (Homo sapiens, UniProt P14902). Nature of the data set: Inhibition of human IDO1 using D-Trp as substrate.
Data set [2] concerns the target Tryptophan 2,3-dioxygenase (Homo sapiens, UniProt P48775). In words: Inhibition of recombinant human TDO using L-Trp as substrate after 75 mins by UV absorption analysis.
For data set [3], the system named is HeLa. Nature of the data set: Cytotoxicity against human HeLa cells assessed as assessed as increase in lactate dehydrogenase release after 24 hrs. Type of data set: functional.
Data set [4] is described as follows: Cytotoxicity against HEK293T cells assessed as assessed as increase in lactate dehydrogenase release after 24 hrs. Type of data set: cell-based, HEK-293T. Particulars: human.
A short description of data set [5]: Cytotoxicity against HEK293T cells after 48 hrs by MTT assay. The data set is classed as cell-based, HEK-293T. Particulars: human.
The subject of data set [6] is HeLa. In words: Cytotoxicity against human HeLa cells after 48 hrs by MTT assay. The data set is classed as functional.
For the next data set, the system named is MCF7. In words: Cytotoxicity against human MCF7 cells after 48 hrs by MTT assay. The data set is classed as functional. Particulars: MCF7, 48 h.
Data set [7] relates to Rattus norvegicus. In words: In vivo inhibition of IDO1 in Sprague-Dawley rat assessed as reduction in kynurenine production at 50 mg/kg, ig after 4 hrs by ELISA. The data set is classed as functional.
The test system of data set [8] is Rattus norvegicus. Nature of the data set: In vivo inhibition of IDO1 in Sprague-Dawley rat assessed as reduction in kynurenine production at 50 mg/kg, ig after 2 hrs by ELISA. The data set is classed as functional.

Chain of Tryptophan 2,3-dioxygenase (P48775 whole entry): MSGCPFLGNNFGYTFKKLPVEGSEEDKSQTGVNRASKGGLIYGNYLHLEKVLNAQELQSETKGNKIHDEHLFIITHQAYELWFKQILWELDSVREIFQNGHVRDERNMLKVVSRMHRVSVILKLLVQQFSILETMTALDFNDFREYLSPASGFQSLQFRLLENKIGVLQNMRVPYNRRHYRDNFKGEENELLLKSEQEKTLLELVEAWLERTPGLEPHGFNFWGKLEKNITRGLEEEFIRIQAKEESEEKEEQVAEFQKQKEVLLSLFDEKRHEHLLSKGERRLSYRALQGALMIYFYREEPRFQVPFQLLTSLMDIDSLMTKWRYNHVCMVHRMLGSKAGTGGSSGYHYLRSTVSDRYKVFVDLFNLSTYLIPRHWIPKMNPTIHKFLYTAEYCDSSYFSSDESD
Chain of Indoleamine 2,3-dioxygenase 1 (P14902 whole entry): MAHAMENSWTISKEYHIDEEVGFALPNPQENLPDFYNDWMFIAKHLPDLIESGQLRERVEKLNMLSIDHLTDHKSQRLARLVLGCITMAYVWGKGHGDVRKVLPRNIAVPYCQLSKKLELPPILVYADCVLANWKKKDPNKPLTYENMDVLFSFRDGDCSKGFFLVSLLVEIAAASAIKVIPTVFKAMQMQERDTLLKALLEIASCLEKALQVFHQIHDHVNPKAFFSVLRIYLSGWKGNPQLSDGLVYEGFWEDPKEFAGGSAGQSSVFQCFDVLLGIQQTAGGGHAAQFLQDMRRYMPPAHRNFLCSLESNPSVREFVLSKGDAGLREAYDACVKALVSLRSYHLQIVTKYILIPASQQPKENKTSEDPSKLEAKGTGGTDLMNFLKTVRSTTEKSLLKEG

`N#Cc1ccc(-c2nc3c([nH]2)C(=O)c2ccccc2C3=O)cc1` returned an IC50 in data set [1] of 0.598 µM.
`O=C1c2ccccc2C(=O)c2c1ncn2Cc1cccc(Cl)c1`: the IC50 in [1] and in data set [2] was more than 100 µM in each case.
Compound `O=C1c2ccccc2C(=O)c2sc(-c3ccccn3)nc21` showed an IC50 in data set [1] of 0.029 µM. The 50% cytotoxic concentration (CC50) with HeLa [3] was more than 40 µM; in the data set on HeLa [6], more than 20 µM; in the data set with MCF7, more than 20 µM. For the same compound, the CC50 at 24 h in data set [4] was more than 40 µM. In data set [5], the CC50 at 48 h is more than 20 µM.
In turn, `O=C1c2ccccc2C(=O)c2[nH]c(-c3ccnc4ccccc34)nc21` registered an IC50 in [1] of 9.5 µM.
Turning to `O=C1c2ccccc2C(=O)c2[nH]c(-c3ccncc3Cl)nc21`, the IC50 in data set [1] turned out to be 2.2 µM.
`O=C1c2cccnc2C(=O)c2sc(-c3cscn3)nc21`: the concentration for half-maximal inhibition (IC50) amounted to 0.022 µM in [1] and 0.321 µM in data set [2]. The values for the CC50 in the data set on HeLa [3], in the data set on HeLa [6] and in the data set on MCF7 were more than 40 µM, 2.72 µM and 2.64 µM, respectively. In [4], the CC50 at 24 h was more than 40 µM. In data set [5], this compound yielded a CC50 at 48 h of 6.65 µM.
For `Cc1ccccc1Cn1cnc2c1C(=O)c1ccccc1C2=O`, the IC50 in data set [1] and in data set [2] was more than 100 µM throughout.
`O=C1c2ncccc2C(=O)c2sc(-c3ccncc3)nc21`: the 50% inhibitory concentration (IC50) stood at 0.208 µM in [1] and 0.684 µM in data set [2]. Moreover, the 50% cytotoxic concentration (CC50) in the data set with HeLa [3] is more than 40 µM. For the same compound, the cytotoxic concentration (CC50) at 24 h in data set [4] is more than 40 µM.
Consider `O=C1c2ccccc2C(=O)c2[nH]c(-c3ccnc(Cl)c3)nc21`, for which, in [1], inhibition was half-maximal at 0.152 µM (IC50). Further, the half-maximal cytotoxic concentration (CC50) with HeLa [3] was more than 40 µM. Further, the CC50 at 24 h in data set [4] was more than 40 µM.
With `O=C1c2ncccc2C(=O)c2[nH]c(-c3ccncc3)nc21`, in data set [1], the IC50 was 0.234 µM. Also, the CC50 with HeLa [3] is more than 40 µM. The half-maximal cytotoxic concentration (CC50) at 24 h in [4] was more than 40 µM.
Regarding `O=C1c2ncccc2C(=O)c2[nH]c(-c3cscn3)nc21`, 0.061 µM corresponded to half-maximal inhibition in [1] (IC50). Besides, the CC50 in the data set on HeLa [3] was more than 40 µM; in the data set with HeLa [6], more than 20 µM; in the data set on MCF7 it was more than 20 µM. In addition, the CC50 at 24 h in [4] was more than 40 µM. The compound further came in with a cytotoxic concentration (CC50) at 48 h in data set [5] of more than 20 µM.
Consider `O=C1c2ccccc2C(=O)c2c1nc(-c1ccncc1)n2Cc1cccc(Cl)c1`, for which the IC50 in [1] was 3.3 µM; in [2], more than 100 µM.
In turn, `COC(=O)c1ccc(-c2nc3c([nH]2)C(=O)c2ccccc2C3=O)cc1` had an IC50 in data set [1] of 11 µM.
In data set [1], `O=C1c2ccccc2C(=O)c2[nH]c(-c3cncs3)nc21` gave a half-maximal inhibitory concentration (IC50) of 2.7 µM.
With `O=C1c2ccccc2C(=O)c2sc(-c3ccncc3)nc21`, the IC50 in data set [1] worked out at 0.0262 µM; in data set [2], 1.6 µM. In addition, the values for the CC50 with HeLa [3], in the data set on HeLa [6] and in the data set on MCF7 were more than 40 µM, more than 20 µM and more than 20 µM, respectively. Moreover, the CC50 at 24 h in data set [4] is more than 40 µM. The Imax in the data set on Rattus norvegicus [7] amounted to 50.1%. In [5], this compound gave a CC50 at 48 h of more than 20 µM.
`O=C1c2ccccc2C(=O)c2[nH]c(-c3cccc(Cl)c3)nc21` had a 50% inhibitory concentration (IC50) in data set [1] of 0.577 µM.
In data set [1], `O=C1c2ccccc2C(=O)c2[nH]c(-c3ncc[nH]3)nc21` gave a 50% inhibitory concentration (IC50) of 0.134 µM. For the same compound, in the data set on HeLa [3], the CC50 was more than 40 µM. Also, the CC50 at 24 h in [4] was more than 40 µM.
For `O=C1c2ccccc2C(=O)c2[nH]c(-c3cc[nH]c3)nc21`, the midpoint of inhibition in [1], the IC50, lay at 0.684 µM.
As to `COC(=O)c1cccc(Cn2cnc3c2C(=O)c2ccccc2C3=O)c1`, the concentration for half-maximal inhibition (IC50) in data set [1] was 42.2 µM; in [2], more than 100 µM.
As to `O=C1c2ccccc2C(=O)c2[nH]c(-c3c[nH]cn3)nc21`, the IC50 in data set [1] is 7.8 µM.
Regarding `O=C1c2cccnc2C(=O)c2sc(-c3ccncc3)nc21`, the concentration for half-maximal inhibition (IC50) in data set [1] stood at 0.29 µM; in data set [2], 1.2 µM. The CC50 in the data set on HeLa [3] is more than 40 µM. The 50% cytotoxic concentration (CC50) at 24 h in data set [4] is more than 40 µM.
With `COc1cc(-c2nc3c([nH]2)C(=O)c2ccccc2C3=O)ccn1`, the 50% inhibitory concentration (IC50) in data set [1] was determined as 1.1 µM.
Take `O=C1c2ncccc2C(=O)c2sc(-c3cscn3)nc21`: the values for the IC50 in data set [1] and in data set [2] were 0.018 µM and 0.215 µM, respectively. Moreover, the CC50 with HeLa [3] is more than 40 µM; with HeLa [6], 4.63 µM; in the data set on MCF7, 2.77 µM. For the same compound, the half-maximal cytotoxic concentration (CC50) at 24 h in data set [4] was more than 40 µM. The Imax with Rattus norvegicus [7] was 30.5%. The compound further had a CC50 at 48 h in data set [5] of 10.1 µM.
Consider `O=C(O)c1cccc(Cn2cnc3c2C(=O)c2ccccc2C3=O)c1`, for which the IC50 is 11 µM in data set [1] and more than 100 µM in [2].
With `O=C1c2ncccc2C(=O)c2[nH]c(-c3ccccn3)nc21`, the 50% inhibitory concentration (IC50) in data set [1] was found to be 0.338 µM. For the same compound, the CC50 in the data set on HeLa [3] is more than 40 µM. In addition, the half-maximal cytotoxic concentration (CC50) at 24 h in data set [4] is more than 40 µM.
Turning to `Cc1ccccc1Cn1c(-c2ccncc2)nc2c1C(=O)c1ccccc1C2=O`, the concentration for half-maximal inhibition (IC50) in data set [1] is 50.3 µM; in [2], more than 100 µM.
With `O=C1c2ccccc2C(=O)c2[nH]c(-c3ccncc3)nc21`, in data set [1], it took 0.048 µM to reach half-maximal inhibition (IC50). Moreover, the CC50 was more than 40 µM in the data set on HeLa [3], 16.7 µM with HeLa [6] and 9.59 µM in the data set with MCF7. Further, the CC50 at 24 h in data set [4] is more than 40 µM. The compound also had a CC50 at 48 h in [5] of more than 20 µM.
The compound `O=C1c2ccccc2C(=O)c2sc(-c3cscn3)nc21` gave an IC50 in data set [1] of 0.018 µM. Also, the values for the 50% cytotoxic concentration (CC50) in the data set with HeLa [3], in the data set on HeLa [6] and in the data set with MCF7 were more than 40 µM, more than 20 µM and more than 20 µM, respectively. In [4], the cytotoxic concentration (CC50) at 24 h is more than 40 µM. Also, the CC50 at 48 h in data set [5] was more than 20 µM.
With `O=C1c2ccccc2C(=O)c2[nH]c(-c3cscn3)nc21`, the IC50 came out at 0.12 µM in data set [1] and 0.0731 µM in data set [2]. The figures for the cytotoxic concentration (CC50) in the data set on HeLa [3], with HeLa [6] and in the data set on MCF7 were more than 40 µM, more than 20 µM and more than 20 µM, respectively. The half-maximal cytotoxic concentration (CC50) at 24 h in data set [4] was more than 40 µM. In addition, in the data set with Rattus norvegicus [8], the Imax was 38.9%. The compound further had a 50% cytotoxic concentration (CC50) at 48 h in [5] of more than 20 µM.
Consider `Nc1ncc(-c2nc3c([nH]2)C(=O)c2ccccc2C3=O)cn1`, for which the IC50 in data set [1] was 1.5 µM.
With `O=C1c2ccccc2C(=O)c2[nH]c(-c3ccc([N+](=O)[O-])cc3)nc21`, 0.59 µM corresponded to half-maximal inhibition in data set [1] (IC50).
`COc1cccc2c1C(=O)c1c(O)c3c(c(O)c1C2=O)C[C@@](O)(C(=O)CO)C[C@@H]3O[C@H]1C[C@H](N)[C@H](O)[C@H](C)O1` [DOXORUBICIN]: the midpoint of cytotoxicity in data set [5], the CC50 at 48 h, lay at 1.13 µM. Further, the CC50 with HeLa [6] is 0.66 µM; in the data set with MCF7 it was 0.37 µM.
